Assay results reported in US12558397B2, “Composition for prevention, amelioration, or treatment of urination-related diseases comprising cephalotocin” (KOREA RESEARCH INSTITUTE OF CHEMICAL TECHNOLOGY, priority 2020, dated 2026).

Experiments:
Type in all cases: cell-based
[1] = target: T1, human oxytocin receptor (Homo sapiens, UniProt P30559); assay: Oxytocin receptor OXTR activity/inhibitory effect, intracellular calcium by calcium dye fluorescence imaging; settings: ECSV304 cells overexpressing human oxytocin receptor, FIGS. 3 and 4
T1 construct: expressed in transfected cells; host or cells: recombinant human epithelial cells, cell line ECSV304 as printed
T1 sequence (P30559 1-389): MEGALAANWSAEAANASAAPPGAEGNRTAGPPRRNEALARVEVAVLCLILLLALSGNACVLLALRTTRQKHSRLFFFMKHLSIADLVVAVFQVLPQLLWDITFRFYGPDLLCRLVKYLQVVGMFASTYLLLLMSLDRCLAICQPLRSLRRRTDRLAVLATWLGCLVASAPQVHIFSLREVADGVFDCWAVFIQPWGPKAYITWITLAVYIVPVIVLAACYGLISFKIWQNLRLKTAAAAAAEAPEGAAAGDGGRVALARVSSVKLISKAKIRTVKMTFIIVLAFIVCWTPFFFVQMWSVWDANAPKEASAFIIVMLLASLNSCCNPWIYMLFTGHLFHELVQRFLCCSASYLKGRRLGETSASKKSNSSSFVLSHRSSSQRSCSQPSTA
Experimental: Recombinant human epithelial cells overexpressing human oxytocin receptor (Name of cell line: ECSV304) were cultured and treated with cephalotocin at different concentrations at room temperature. The change in intracellular calcium concentration induced by cephalotocin-oxytocin receptor binding was measured by calcium dye fluorescence imaging.
To confirm the receptor activation effect, the response to increasing the intracellular calcium concentration that oxytocin 1 μM may cause was taken as 100%, and the relative magnitude of the response induced when treated with cephalotocin alone without oxytocin was measured
To confirm the receptor inhibitory effect, the response to increasing the intracellular calcium concentration that oxytocin 30 nM may cause was taken as 100% standard, and the relative magnitude of the response induced when treated with oxytocin 30 nM and cephalotocin simultaneously was measured.
(§1) . The results confirming the regulatory effect on the receptors OXTR, V1AR, V1BR and V2R by Octopus vulgaris octopressin are shown in FIGS. 3 and 4, respectively.

[2] = target: T2, human vasopressin V1A receptor (Homo sapiens, UniProt P37288); assay: Vasopressin receptor V1AR activity/inhibitory effect, intracellular calcium by calcium dye fluorescence imaging; settings: CHO cells overexpressing human V1A receptor, FIGS. 3 and 4
T2 construct: expressed in transfected cells; host or cells: CHO (Chinese hamster ovary) cells
T2 sequence (P37288 whole entry): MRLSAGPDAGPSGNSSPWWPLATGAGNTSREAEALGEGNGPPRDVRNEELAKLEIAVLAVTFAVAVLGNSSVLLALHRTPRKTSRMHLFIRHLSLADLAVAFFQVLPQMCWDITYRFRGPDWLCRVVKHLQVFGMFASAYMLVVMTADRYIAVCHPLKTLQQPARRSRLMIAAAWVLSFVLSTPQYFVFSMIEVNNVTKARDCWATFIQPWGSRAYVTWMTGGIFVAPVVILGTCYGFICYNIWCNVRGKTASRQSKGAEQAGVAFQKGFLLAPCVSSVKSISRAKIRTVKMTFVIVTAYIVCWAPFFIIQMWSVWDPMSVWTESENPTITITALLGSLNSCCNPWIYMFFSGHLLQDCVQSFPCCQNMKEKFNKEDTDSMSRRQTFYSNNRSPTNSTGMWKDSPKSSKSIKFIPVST
Experimental: Recombinant human vasopressin V1A receptor-overexpressing Chinese hamster ovary cells (cell line name: CHO) were cultured and treated with cephalotocin at different concentrations at room temperature, and the change in intracellular calcium concentration induced by cephalotocin-vasopressin V1A receptor binding was measured by the calcium dye fluorescence imaging method.
To confirm the receptor inhibitory effect, the response to increasing the intracellular calcium concentration that vasopressin 10 nM may cause was taken as 100% standard, and the relative magnitude of the response induced when treated with vasopressin 10 nM and cephalotocin simultaneously was measured.
as §1

[3] = target: T3, human vasopressin V1B receptor (Homo sapiens, UniProt P47901); assay: Vasopressin receptor V1BR activity/inhibitory effect, intracellular calcium by calcium dye fluorescence imaging; settings: RBL cells overexpressing human V1B receptor, FIGS. 3 and 4
T3 construct: expressed in transfected cells; host or cells: RBL (basophilic leukemia) cells
T3 sequence (P47901 1-424): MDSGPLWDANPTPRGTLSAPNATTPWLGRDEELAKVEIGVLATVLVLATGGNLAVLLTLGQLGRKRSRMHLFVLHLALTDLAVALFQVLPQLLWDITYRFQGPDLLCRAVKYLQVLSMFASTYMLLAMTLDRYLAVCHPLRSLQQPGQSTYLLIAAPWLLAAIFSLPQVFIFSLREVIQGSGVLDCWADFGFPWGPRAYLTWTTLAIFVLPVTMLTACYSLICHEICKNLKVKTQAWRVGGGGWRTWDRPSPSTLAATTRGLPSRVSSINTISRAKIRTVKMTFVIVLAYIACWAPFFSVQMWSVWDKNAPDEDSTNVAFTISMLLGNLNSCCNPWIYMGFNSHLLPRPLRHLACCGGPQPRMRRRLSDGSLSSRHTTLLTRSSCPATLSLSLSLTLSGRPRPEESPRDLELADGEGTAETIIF
Experimental: Recombinant human vasopressin V1B receptor-overexpressing […] basophilic leukemia (cell line name: RBL) was cultured and treated with cephalotocin at different concentrations at room temperature, and the change in intracellular calcium concentration induced by cephalotocin-vasopressin V1B receptor binding was measured by the calcium dye fluorescence imaging method.
The results confirming the regulatory effect on the receptors OXTR, V1AR, V1BR and V2R by Octopus vulgaris octopressin are shown in FIGS. 3 and 4, respectively.

[4] = target: T4, human vasopressin V2 receptor (Homo sapiens, UniProt P30518); assay: Vasopressin receptor V2R activity/inhibitory effect, intracellular cAMP by HTRF; settings: CHO cells overexpressing human V2 receptor, FIGS. 3 and 4
T4 construct: expressed in transfected cells; host or cells: CHO (Chinese hamster ovary) cells
Experimental: Recombinant human vasopressin V2 receptor-overexpressing Chinese hamster ovary cells (cell line name: CHO) were cultured and treated with cephalotocin at different concentrations at room temperature for 30 minutes, and intracellular cAMP concentration accumulated for 30 minutes by cephalotocin-vasopressin V2 receptor binding was measured by the HTRF fluorescence imaging method. […]. To confirm the receptor inhibitory effect, the response to increasing the intracellular cAMP concentration that vasopressin 0.03 nM may cause for 30 minutes was taken as 100% standard, and the relative magnitude of the response induced when treated with vasopressin 0.03 nM and cephalotocin simultaneously was measured.
as §1

octopressin
does not regulate: Regulation (activation/inhibition) of OXTR [1] | Regulation (activation/inhibition) of V1AR [2] | Regulation (activation/inhibition) of V1BR [3] | Regulation (activation/inhibition) of V2R [4]
